# Read-outs that look alike come from different tables or passages of the source.
# What was measured:
# dopamine D1-receptors = molecular target: T1, dopamine D1-receptors (Rattus norvegicus, UniProt P18901); assay: affinity for dopamine D1-receptors by displacement experiments with [3H]-Sch 23390; format: binding
# T1 construct: The striata were dissected out, weighed and homogenised in 25 volumes of tris buffer; from tissue; host or cells: rat striatum membranes (Chbb:Thom strain), prepared as for the D2 assay
# Procedure: (§1) Male rats (of the Chbb:Thom strain weighing about 200 g) were killed by a blow to the back of the neck. The brains were removed and dissected on ice. The striata were dissected out, weighed and homogenised in 25 volumes of tris buffer (50 mM tris-HCl, 1 mM EDTA, 5 mM MgCl2 and 1 mM ascorbic acid) for 30 seconds in an Ultra-Turrax at maximum speed, followed by 10 cycles in a Potter-Elvehjem at 1400 rpm. The pellet obtained after centrifuging at 50,000×g at 4° C. for 15 minutes was again taken up in 25 ml of tris buffer and centrifuged under the above conditions. The supernatant was discarded and the pellet obtained was incubated in 25 ml of tris buffer at 37° C. for 30 minutes and then centrifuged again at 50,000×g at 4° C. for 15 minutes. Finally, the pellet obtained was mixed with tris buffer to obtain a homogenate dilution of 1:500 (based on the weight of the striata).
# (§2) Displacement curves were obtained from the data using the TOPFIT programming package (G. Heinzel in "Pharmacokinetics During Drug Development: Data Analysis and Evaluation Techniques", G. Bozler and J. M. van Rossum Eds., G. Fischer Verlag, Stuttgart 1982, 207).
# 7. Determining the affinity for dopamine D1-receptors by displacement experiments with [^3 H1-Sch 23390
# The membrane preparation and data analysis were carried out as described for determining the affinity for dopamine D2 - receptors.
# 1 ml aliquots of the membrane preparation were incubated for 1 hour at ambient temperature with 1 ml of a solution of 0.25 nM [^3 H]-Sch 23390 (2.44 TBq/mmol, Messrs. DuPont NEN) and with increasing concentrations of the test substance (10^-11 to 10^-4 M). Incubation was ended by the addition of 5 ml of ice cold tris buffer and filtration through Whatman GF/B filters. The filters were washed twice, each time with 5 ml of ice cold buffer. The radioactivity of the filters was determined by liquid scintillation measurement in Instagel(R) (Messrs. Canberra Packard).
# The non-specific binding was determined in the presence of 10^-6 M (-)-butaclamol (Research Biochemicals Inc.).
# [1] = system: hypersensitive dopamine receptor; assay: motility triggering in the mouse treated 24 hours earlier with reserpine; format: in vivo; details: Mus musculus, sc; reserpine-treated mice, s.c.; read-out: DLi50 (dosage resulting in 50 running pulses every 5 minutes)
# Procedure: This test determines predominantly agonistic effects on the hypersensitive dopamine receptor.
# Male mice are treated 24 hours before the experiment with 5 mg/kg i.p. reserpine. The animals are kept at 25°-30° C. and treated three times with 2 ml of a 5% glucose solution in tyrode s.c. (the first time when the reserpine is given, the second time in the evening of the pre-treatment day and the third time on the morning of the test day).
# […] (The injection volume is usually 0.1 ml/10 g of body weight). 30 minutes later the groups of animals are placed in the observation cages (measuring 42 x 24 x 8 cm) and fitted with an infrared lightbeam in order to measure their activity. The value measured is the frequency with which a group of 6 mice pass through the infra-red beam within 5 minutes ("running pulses/5 minutes"; mean at n=3; mean±s.e.m. at n=6).
# 3 to 6 groups are tested for each substance.
# dopamine D2-receptors = dopamine D2-receptors (Rattus norvegicus, UniProt P61169); assay: affinity for dopamine D2-receptors by displacement experiments with [3H]-spiperone (rat striatum membranes); format: binding; details: for Ki: [3H]-spiperone, high-affinity form of the dopamine receptor; for α2-IC50 / D2-Ki: relative affinity for dopamine-D2 receptors compared with α2-adrenoceptors, the higher, the higher the D2/α2 selectivity
# Procedure: 1Determining the affinity for dopamine D2-receptors by displacement experiments with [^3 H]-spiperone (Modified Method of W. Billard et al., Life Sci. 35, 1885 (1984) and D. J. de Vries and P. M. Beart, Eur. J. Pharmacol. 109, 417 (1985))
# as §1
# 1 ml aliquots of the membrane preparation were incubated with 1 ml of a solution of 0.25 nM [^3 H]-spiperone ([…], Messrs. DuPont NEN) and at increasing concentrations of the test substance (10^-11 to 10^-4 M) at ambient temperature for one hour. Incubation was ended by the addition of 5 ml of ice cold tris buffer and filtration using Whatman GF/B filters. The filters were washed twice, each time with 5 ml of ice cold buffer. The radioactivity of the filters was determined by liquid scintillation measurement in Instagel^(R) (Messrs. Canberra Packard). Non-specific binding was determined in the presence of 10^-5 M haloperidol (Sigma Chemical Co.).
# as §2
# alpha-2 receptors = molecular target: T2, alpha-2 receptors (Rattus norvegicus, UniProt P22909); assay: affinity for alpha-2 receptors by displacement experiments with [3H]-clonidine (rat cortex membranes); format: binding; details: read-out: α2-IC50
# T2 sequence (P22909 1-465): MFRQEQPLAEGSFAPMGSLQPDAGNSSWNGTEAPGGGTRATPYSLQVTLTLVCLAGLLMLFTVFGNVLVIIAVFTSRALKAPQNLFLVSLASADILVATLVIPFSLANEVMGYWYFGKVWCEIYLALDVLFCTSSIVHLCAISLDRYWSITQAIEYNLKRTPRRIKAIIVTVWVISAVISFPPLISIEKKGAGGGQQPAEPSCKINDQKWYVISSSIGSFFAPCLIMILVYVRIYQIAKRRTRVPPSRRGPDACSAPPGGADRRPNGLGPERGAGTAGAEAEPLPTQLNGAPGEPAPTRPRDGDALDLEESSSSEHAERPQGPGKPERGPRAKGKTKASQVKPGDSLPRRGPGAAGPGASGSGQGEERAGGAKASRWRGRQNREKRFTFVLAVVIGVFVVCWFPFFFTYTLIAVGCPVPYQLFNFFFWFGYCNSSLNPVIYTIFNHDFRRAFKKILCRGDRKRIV
# [2] = molecular target: T3, serotonin-2(5-HT2)-receptors (Rattus norvegicus, UniProt P14842); assay: affinity for serotonin-2 (5-HT2) receptors by displacement experiments with [3H]-spiperone (rat frontal cortex); format: binding
# T3 construct: The frontal cortex was dissected out and placed in ice cold 0.32 M saccharose solution; from tissue; host or cells: rat frontal cortex homogenate (Chbb:Thom strain)
# Procedure: (§3) Specific binding is obtained from total binding minus non-specific binding.
# A male rat (Chbb:Thom strain, about 200 g) was decapitated. The brain was removed. The frontal cortex was dissected out and placed in ice cold 0.32 M saccharose solution; its moist weight was determined. It was homogenised in 10 times the volume (0.32 M) of saccharose solution for 1 minute at 800 rpm in a Potter S (made by Braun of Melsungen). The homogenised material was centrifuged for 10 minutes at 1000×g (=3,000 rpm with a rotor 8×38 ml) in a refrigerated centrifuge. The supernatant was decanted off and homogenised (Polytron, position 5, 1 minute); the sediment was discarded. 5 ml (=0.5 g moist weight) of the tissue suspension thus obtained were made up to 40 ml with buffer (50 mm tris-HCl; pH=7.7 at ambient temperature).
# 0.8 ml of the buffered homogenised tissue (=10 mg moist weight) were incubated with 0.1 ml of a solution of [^3 H]-spiperone (about 0.2 nmol/1 final concentration) and with 0.1 ml of a solution of the test substance (increasing concentration) for 15 minutes at 37° C. (triple measurement). Incubation was stopped by rapid filtering through a Whatman GF/B filter; rinsing was carried out 3 times, each time with 5 ml of ice cold buffer within a maximum of 10 seconds (Filter Prep Messrs. Ismatec). The radioactivity of the filters was determined by liquid scintillation measurement.
# The specific binding is obtained from the total binding minus the non-specific binding. The averages of the triple measurements are entered in a system of coordinates as in 1.3. The IC50 value is the concentration which inhibits the specific binding of [^3 H]-spiperone by 50%.
# [3] = molecular target: T4, serotonin-1A(5-HT1A) receptors (Rattus norvegicus, UniProt P19327); assay: affinity for serotonin-1A (5-HT1A) receptors by displacement experiments with [3H]-8-OH-DPAT (rat frontal cortex); format: binding
# T4 construct: The frontal cortex was dissected out; from tissue; host or cells: rat frontal cortex homogenate (Chbb:Thom strain)
# T4 sequence (P19327 1-422): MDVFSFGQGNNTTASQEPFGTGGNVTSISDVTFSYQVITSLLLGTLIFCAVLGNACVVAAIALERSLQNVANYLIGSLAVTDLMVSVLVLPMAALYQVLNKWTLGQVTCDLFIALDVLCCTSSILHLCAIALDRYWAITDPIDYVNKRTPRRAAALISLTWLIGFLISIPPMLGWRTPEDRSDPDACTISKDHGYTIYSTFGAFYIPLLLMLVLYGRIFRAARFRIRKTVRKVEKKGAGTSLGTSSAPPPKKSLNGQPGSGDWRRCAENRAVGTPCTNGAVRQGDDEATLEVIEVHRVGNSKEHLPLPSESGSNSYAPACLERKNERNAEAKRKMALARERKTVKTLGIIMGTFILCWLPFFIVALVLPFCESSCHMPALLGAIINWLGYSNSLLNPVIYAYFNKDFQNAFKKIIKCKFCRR
# Procedure: 3. […] (Method of S. J. Peroutka, J. Neurochem. 47, 529 (1986), modified according to H. Gozlan et al., J. Receptor Research 7. 195 (1987))
# A male rat (Chbb:Thom strain weighing about 200 g) was decapitated. The brain was removed and placed in ice-cold buffer (50 mmol/1 tris-HCl plus hydrochloric acid ad pH =7.4 at ambient temperature). The frontal cortex was dissected out; its moist weight was determined. It was homogenised in 40 times its volume of buffer (Polytron, position 6, 10 seconds), then centrifuged for 20 minutes at 45,000×g in the refrigerated centrifuge. The pellet was washed in 100 times its volume of buffer and centrifuged again as described above. The resulting pellet was resuspended in 40 times its volume of buffer and pre-incubated for 10 minutes at 37° C. Sixty times the volume of buffer were added and centrifuging was carried out as above. The resulting pellet was washed with 100 times the volume of buffer and centrifuged as above. The pellet was resuspended in buffer (0.8 ml/10 mg) and briefly homogenised in the Polytron. This homogenised tissue was cooled in ice until ready for incubation.
# Incubation was stopped by rapid filtering through Whatman GF/B filters; rinsing was carried out twice, each time with 5 ml of ice cold buffer (Filter Prep, Messrs. Ismatec). The radioactivity of the filters was determined by liquid scintillation measurement.
# as §3
# [4] = [3H]-8-OH-DPAT, rat frontal cortex, read-out: 5-HT1A-Ki
# T3 sequence (P14842 whole entry): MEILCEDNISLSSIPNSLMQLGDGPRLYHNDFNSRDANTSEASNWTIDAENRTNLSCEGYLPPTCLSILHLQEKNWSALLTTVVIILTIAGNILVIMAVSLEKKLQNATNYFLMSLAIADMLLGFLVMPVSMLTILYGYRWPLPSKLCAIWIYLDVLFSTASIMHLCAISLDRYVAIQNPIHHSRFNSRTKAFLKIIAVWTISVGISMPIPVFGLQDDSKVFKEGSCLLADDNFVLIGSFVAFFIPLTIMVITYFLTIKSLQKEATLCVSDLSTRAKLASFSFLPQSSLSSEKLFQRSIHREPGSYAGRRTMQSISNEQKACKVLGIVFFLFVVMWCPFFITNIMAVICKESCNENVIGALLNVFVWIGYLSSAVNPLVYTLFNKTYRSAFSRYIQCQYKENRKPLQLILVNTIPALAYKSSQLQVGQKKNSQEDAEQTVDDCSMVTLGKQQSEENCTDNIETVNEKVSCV
# Sequence of dopamine D2-receptors (P61169 whole entry): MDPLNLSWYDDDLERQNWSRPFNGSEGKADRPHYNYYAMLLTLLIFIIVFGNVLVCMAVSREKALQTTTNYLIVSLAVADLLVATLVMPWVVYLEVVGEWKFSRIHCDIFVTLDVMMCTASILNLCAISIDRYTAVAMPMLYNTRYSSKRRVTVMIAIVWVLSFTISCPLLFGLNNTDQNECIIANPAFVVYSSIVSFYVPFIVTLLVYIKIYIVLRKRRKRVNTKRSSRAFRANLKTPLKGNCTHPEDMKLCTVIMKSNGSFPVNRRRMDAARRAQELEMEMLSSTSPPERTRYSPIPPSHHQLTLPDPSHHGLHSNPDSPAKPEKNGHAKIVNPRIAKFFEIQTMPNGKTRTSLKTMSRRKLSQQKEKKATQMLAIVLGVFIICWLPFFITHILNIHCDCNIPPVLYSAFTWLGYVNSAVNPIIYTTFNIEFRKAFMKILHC
# T1 sequence (P18901 whole entry): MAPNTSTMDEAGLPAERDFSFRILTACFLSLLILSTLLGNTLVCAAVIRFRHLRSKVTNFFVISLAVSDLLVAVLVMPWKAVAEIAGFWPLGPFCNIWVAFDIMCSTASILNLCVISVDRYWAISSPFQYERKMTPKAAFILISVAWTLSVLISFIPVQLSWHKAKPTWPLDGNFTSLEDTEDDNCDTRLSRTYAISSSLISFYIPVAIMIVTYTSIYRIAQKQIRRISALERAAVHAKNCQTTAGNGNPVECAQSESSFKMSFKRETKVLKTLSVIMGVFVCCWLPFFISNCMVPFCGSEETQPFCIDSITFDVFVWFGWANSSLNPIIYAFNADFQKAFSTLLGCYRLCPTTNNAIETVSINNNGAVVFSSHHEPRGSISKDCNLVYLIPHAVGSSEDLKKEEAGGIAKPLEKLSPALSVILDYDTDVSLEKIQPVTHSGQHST
SMILES,Ki (dopamine D2-receptors),α2-IC50 / D2-Ki (dopamine D2-receptors),IC50 (alpha-2 receptors),Ki [2],"Ki [3, 4]",other results
"Nc1nc2c(s1)CCN(CC=Cc1ccccc1OCc1ccccc1)CC2 [Example 4x, 2-Amino-6-(3-(2-benzyloxy-phenyl)allyl)-4,5,7,8-tetrahydro-6H-thiazolo[5,4-d]azepine]",–,–,–,–,–,Ki (dopamine D1-receptors): 400 nM
"Nc1nc2c(s1)CCN(CC=Cc1cccnc1)CC2 [Example 11b, 2-Amino-6-(3-(3-pyridyl)allyl)-4,5,7,8-tetrahydro-6H-thiazolo[5,4-d]azepine]",–,–,–,–,–,ED (50 running pulses/5 min) [1]: 0.29 mg/kg
"Nc1nc2c(s1)CCN(CCc1ccccc1)CC2 [Compound C, 2amino-6-(2phenylethyl)-4,5,7,8-tetrahydro-6H-thiazolo[5,4d]azepine, reference compound]",410 nM,12.4,5100 nM,–,–,Ki (dopamine D1-receptors): 11000 nM
"Nc1nc2c(s1)CCN(CC=Cc1ccccc1)CC2 [Example 1, 2-Amino-6-cinnamyl-4,5,7,8-tetrahydro-6H-thiazolo-[5,4-d]azepine]",–,–,–,356 nM,4340 nM,–
"Nc1nc2c(s1)CCN(CCC=Cc1ccccc1)CC2 [Example 8k, 2-Amino-6-(4-phenyl-3-buten-1-yl)-4,5,7,8-tetrahydro-6H-thiazolo[5,4-d]azepine]",–,–,–,–,–,Ki (dopamine D1-receptors): 510 nM
"Nc1nc2c(s1)CCN(CC=Cc1ccsc1)CC2 [Example 4a, 2-Amino-6-(3-(3-thienyl)allyl)-4,5,7,8-tetrahydro-6H-thiazolo[5,4-d]azepin]",–,–,–,–,–,ED (50 running pulses/5 min) [1]: 1.85 mg/kg
"CCCN(CCC)C1CCc2cccc(O)c2C1 (centres unmarked) [Example 8-OH-DPAT, 8-OH-DPAT, reference compound]",–,–,–,2880 nM,–,–
"O=C(c1ccc(F)cc1)C1CCN(CCn2c(=O)[nH]c3ccccc3c2=O)CC1 [Ketanserine, reference compound]",–,–,–,–,–,Ki [3]: 2830 nM
"Nc1nc2c(s1)CCN(CC1=Cc3ccccc3CC1)CC2 [Example 1b, 2-Amino-6-(1,2-dihydronaphthalen-3-yl-methyl)-4,5,7,8-tetrahydro-6H-thiazolo[5,4-d]azepine]",–,–,–,–,–,Ki (dopamine D1-receptors): 800 nM
"Nc1nc2c(s1)CCN(CC1CC1c1ccccc1)CC2 (centres unmarked) [Example 17, 2-Amino-6-(2-phenyl-1-cyclopropyl-methyl)-4,5,7,8-tetrahydro-6H-thiazolo[5,4-d]azepine]",–,–,–,339 nM,1060 nM,–

# Continued, in another order:
Ki (dopamine D2-receptors),α2-IC50 / D2-Ki (dopamine D2-receptors),IC50 (alpha-2 receptors),Ki [2],"Ki [3, 4]",SMILES,other results
10 nM,89,890 nM,1800 nM,14200 nM,"Nc1nc2c(s1)CCN(CC#Cc1ccccc1)CC2 [Example 4d, 2-Amino-6-(3-phenyl-2-propyn-1-yl)-4,5,7,8-tetrahydro-6H-thiazolo[5,4-d]azepine]",–
4.4 nM,450,2000 nM,860 nM,53000 nM,"Nc1nc2c(s1)CCN(C/C=C\c1ccccc1)CC2 [Example 12b, (Z)-2-Amino-6-(3-phenyl™2-propen-I-yl)-4,5,7,8-tetrahydro-6H-thiazolo[5,4-d]azepine]",–
3 nM,733,2200 nM,1030 nM,36300 nM,"Nc1nc2c(s1)CCN(CC=Cc1ccc(-c3ccccc3)cc1)CC2 [Example 4w, 2-Amino-6-(3-(4-biphenyl)allyl)-4,5,7,8-tetrahydro-6H-thiazolo[5,4-d]azepine]",–
6.9 nM,318,2200 nM,350 nM,14000 nM,"Nc1nc2c(s1)CCN(CC=Cc1ccc3ccccc3c1)CC2 [Example 4u, 2-Amino-6-(3-(2-naphthyl)allyl)-4,5,7,8-tetrahydro-6H-thiazolo[5,4-d]azepine]",–

# — US5068325A, “4,5,7,8-tetrahydro-6H-thiazolo[5,4-d]azepines, their preparation and their use as pharmaceutical compositions” (priority 1988, dated 1991)
